Earlier results, collected in paper PMC12505607 (BMC Medicine, 2025).
Read-outs that look alike come from different tables or passages of the source.

| recommended dose for combination with endocrine therapy (patients; in vivo) [mg BID] | patients with grade 3 fatigue as DLTs (patients; phase 1 dose-escalation study) [patients] | Structure (SMILES) | incidence of grades 3–4 neutropenia (patients; phase 1 study) [%] | MATE2-K inhibition (MATE2-K) | MATE1 inhibition (MATE1) | OCT2 inhibition (OCT2) | incidence of grades 3–4 neutropenia (patients; in vivo) [%] |
| --- | --- | --- | --- | --- | --- | --- | --- |
| 150 | 4 | CCN1CCN(Cc2ccc(Nc3ncc(F)c(-c4cc(F)c5nc(C)n(C(C)C)c5c4)n3)nc2)CC1 [abemaciclib] | 32.0 | inhibition | inhibition | inhibition | – |
| – | – | CC(=O)c1c(C)c2cnc(Nc3ccc(N4CCNCC4)cn3)nc2n(C2CCCC2)c1=O [palbociclib] | – | – | – | – | 33.0 |
| – | – | CN(C)C(=O)c1cc2cnc(Nc3ccc(N4CCNCC4)cn3)nc2n1C1CCCC1 [ribociclib] | 27.0 | – | – | – | – |
